Measured values from US12677850B2, “Stevia blends containing rebaudioside B” (Tate & Lyle Solutions USA LLC, priority 2011, dated 2026).

What was measured:
[1] = assay type: physicochemical; settings: pH 3
Experimental: To determine the solubility of rebaudioside A and rebaudioside B in certain solutions, four stock solutions were prepared. A 10× concentrated citric acid/sodium citrate pH 3 stock buffer solution was prepared by dissolving 0.9 g anhydrous citric acid and 0.26 g of sodium citrate dihydrate in water to make 100 mL of buffer (0.047 M citric acid+0.0088 M sodium citrate). A 2500 ppm (nominal) solution of rebaudioside A was prepared by dissolving 0.125 g of GLG RA 97 to make 50 mL of solution. A 2500 ppm (nominal) solution of stevioside was prepared by dissolving 0.125 g of GLG STV 97 to make 50 mL of solution. A 1000 ppm (nominal) solution of rebaudioside B was prepared by diluting 56 mL of a solution assayed at 1790 ppm to make 100 mL of solution.
These solutions were mixed as 1 mL total amounts by micropipetting the volumes, in microliters, into 1.5 mL microcentrifuge tubes As shown in Table 14.
After standing for […] (~100 hours), the tubes were spun in a bench top microcentrifuge to pelletize the precipitate. The clear supernate was sampled into vials and assayed for glycosides using a reverse phase high performance liquid chromatograph (HPLC) gradient method with UV detection (Waters 2695 Separations Module equipped with a Waters 2487 Dual X Absorbance Detector or equivalent instrumentation) that is summarized in Table 15. The HPLC conditions were as follows:
The supernatant data collected from the HPLC were processed using DESIGN EXPERT 8 software. Briefly, the data were entered into the program as “factor” data as a 2 factor-5 level general factorial design as the nominal data which were then converted to numerical data and replaced by the actual HPLC results. The software then selected a model that predicted the concentration (solubility) of rebaudioside B as a function of the concentration of rebaudioside A and stevioside in the supernatant. The software also calculated a number of statistical factors that indicated the significance of the model parameters.

[2] = previous reports; cited from earlier work

- solubility [1]: limited
Substance: rebaudioside B
- sweetness relative to rebaudioside A [2]: one-half to two-thirds
